Measurements published in PMC10062711 (Journal of Molecular Structure, 2023).

Columns and labels:
P. aeruginosa (MTCC-741) = test: In vitro antibacterial MIC, microbroth dilution; assay type: cell-based; settings: 24 h incubation
[1] = test system: Mycobacterium tuberculosis H37Rv; test: Antitubercular activity, Resazurin Assay method; assay type: cell-based; settings: for % Inhibition: primary screening (6.5 mg/mL); for antitubercular activity compared to PZA: M. tuberculosis H37Rv, versus PZA
E. coli (MTCC-443) = test: In vitro antibacterial MIC, microbroth dilution; assay type: cell-based; settings: 24 h incubation
C. albicans = test: In vitro antifungal MIC; assay type: cell-based; settings: 72-96 h incubation
S. aureus (MTCC-96) = test: In vitro antibacterial MIC, microbroth dilution; assay type: cell-based; settings: 24 h incubation
[2] = test system: peripheral blood mononuclear cells (PBMC); settings: MTT assay
B. subtilis (MTCC-121) = test: In vitro antibacterial MIC, microbroth dilution; assay type: cell-based; settings: 24 h incubation
A. niger = test: In vitro antifungal MIC; assay type: cell-based; settings: 72-96 h incubation
Rhizopus sp = test: In vitro antifungal MIC; assay type: cell-based; settings: 72-96 h incubation
A. flavus = test: In vitro antifungal MIC; assay type: cell-based; settings: 72-96 h incubation
K. pneumonia (MTCC2272) = test: In vitro antibacterial MIC, microbroth dilution; assay type: cell-based, K. pneumoniae; settings: 24 h incubation

Row | Substance | MIC P. aeruginosa (P. aeruginosa (MTCC-741)) [µg/mL] | % Inhibition ([1]; M. tb H37Rv) [%] | antitubercular activity compared to PZA [1] | MIC E. coli (E. coli (MTCC-443)) [µg/mL] | MIC C. albicans (C. albicans) [µg/mL] | MIC S. aureus (S. aureus (MTCC-96)) [µg/mL] | IC50 (cytotoxicity) [2] [µg/mL] | MIC B. subtilius (B. subtilis (MTCC-121)) [µg/mL] | MIC A. niger (A. niger) [µg/mL] | MIC Rhizopus sp (Rhizopus sp) [µg/mL] | MIC A .flavus (A. flavus) [µg/mL] | MIC K. pneumoniae (K. pneumonia (MTCC2272)) [µg/mL] | MIC ([1]; M. tb H37Rv, neutral pH) [µg/mL]
1 | 3,5-Dimethyl-2,6-bis(p-methoxyphenyl)pyran-4-one N-isonicotinoylhydrazone [Compound 12] | 100 | 70 | twice | 50 | 25 | 50 | 609.1 | 25 | 25 | 50 | 12.5 | 25 | –
2 | 3,5-Dimethyl-2,6-bis(p-methylphenyl)pyran-4-one N-isonicotinoylhydrazone [Compound 11] | 25 | 76 | twice | 12.5 | 50 | 12.5 | 587.6 | 25 | 50 | 50 | 25 | 25 | –
3 | 3-Ethyl-2,6-diphenylpyran-4-one N-isonicotinoylhydrazone [Compound 8] | 25 | 70 | twice | 6.3 | 25 | 50 | 486.2 | 6.3 | 25 | 12.5 | 25 | 12.5 | –
4 | 3-Methyl-2,6-diphenylpyran-4-one N-isonicotinoylhydrazone [Compound 7] | 12.5 | 73 | – | 6.3 | 25 | 25 | – | 12.5 | 50 | 25 | 12.5 | 12.5 | 6.25
